Consider 31 molecules from patent US10807986B2, “Fused pyrimidine compound or salt thereof” (TAIHO PHARMACEUTICAL CO., LTD., priority 2016, dated 2020).

SMILES strings stand for the structures.

A short description of this data set: Evaluation of stability in liver microsome. The settings on record: mouse liver microsome 0.25 mg/mL, test compound 1 μM, 37° C., 30 minutes. For orientation: Microsomes from liver hold many membrane-bound enzymes, among them those of drug oxidation.
Method: Solutions of the test compounds in DMSO/acetonitrile (the final concentration of each test compound was 1 μM, the final concentration of DMSO was 0.01%, and the final concentration of acetonitrile was 1%) were individually added to a liver microsome mixture solution (mouse liver microsome with a final concentration of 0.25 mg/mL, a potassium phosphate buffer with a final concentration of 100 mM, and magnesium chloride with a final concentration of 3 mM), and each mixture was pre-incubated at 37° C. for 5 minutes. […] After incubation at 37° C. for 30 minutes, a double amount of ethanol was added thereto to terminate the reaction, thereby obtaining post-reaction samples. A double amount of ethanol was added to each of the remaining mixture solutions, and a NADPH-generating system was further added thereto, thereby obtaining pre-reaction samples. The pre-reaction samples and post-reaction samples were centrifuged at 2000×g, and their supernatant was filtered through a glass filter. Each filtrate was then introduced into LC-MS/MS, and MS/MS peaks of the test compounds were detected. From the ratio of the post-reaction MS/MS peak to the pre-reaction MS/MS peak of the test compounds, the percentage of the remaining test compounds (remaining %) was calculated.
As to `Nc1ncnc2c1c(C(=O)Nc1ccc(Oc3ccccc3)cc1)cn2C1CCCC1` [Compound 2 of Comparative Examples, 4-amino-7-cyclopentyl-N-(4-phenoxyphenyl)-7H-pyrrolo[2,3-d]pyrimidine-5-carboxamide, reference compound], the “Remaining (%)” value was 0%.

As for `COCc1ccc(NC(=O)c2cn(C(C)(C)C)c3ncnc(N)c23)cc1` [Example 2, 4-amino-7-(tert-butyl)-N-(4-(methoxymethyl)phenyl)-7H-pyrrolo[2,3-d]pyrimidine-5-carboxamide], the “Remaining (%)” value worked out at 64%. The figure for `COCc1ccc(NC(=O)c2cn(C(C)(C)C)c3ncnc(N)c23)cc1F` [Example 30, 4-amino-7-(tert-butyl)-N-(3-fluoro-4-(methoxymethyl)phenyl)-7H-pyrrolo[2,3-d]pyrimidine-5-carboxamide] is 54%; for `COCc1ccc(NC(=O)c2cn(C(C)(C)C)c3ncnc(N)c23)c(OC)c1` [Example 33, 4-amino-7-(tert-butyl)-N-(2-methoxy-4-(methoxymethyl)phenyl)-7H-pyrrolo[2,3-d]pyrimidine-5-carboxamide] it is 57%. Regarding `[2H]C([2H])([2H])OCc1ccc(NC(=O)c2cn(C(C)(C)C)c3ncnc(N)c23)cc1` [Example 35, 4-amino-7-(tert-butyl)-N-(4-((methoxy-d3)-methyl)phenyl)-7H-pyrrolo[2,3-d]pyrimidine-5-carboxamide], the “Remaining (%)” value is 58%. The result for `COCc1ccc(NC(=O)c2cn(C3(C)CC3)c3ncnc(N)c23)cc1` [Example 36, 4-amino-N-(4-(methoxymethyl)phenyl)-7-(1-methylcyclopropyl)-7H-pyrrolo[2,3-d]pyrimidine-5-carboxamide] reads 73%; that for `COCc1ccc(NC(=O)c2cn(C(C)(C)CF)c3ncnc(N)c23)cc1F` [Example 41, 4-amino-7-(1-fluoro-2-methylpropan-2-yl)-N-(3-fluoro-4-(methoxymethyl)phenyl)-7H-pyrrolo[2,3-d]pyrimidine-5-carboxamide], 56%.

`COCc1ccc(NC(=O)c2cn(C3(CF)CC3)c3ncnc(N)c23)cc1` [Example 45, 4-amino-7-(1-(fluoromethyl)cyclopropyl)-N-(4-(methoxymethyl)phenyl)-7H-pyrrolo[2,3-d]pyrimidine-5-carboxamide]: the “Remaining (%)” value was 66%. Consider `COCc1ccc(NC(=O)c2cn(C3(C(F)F)CC3)c3ncnc(N)c23)cc1` [Example 46, 4-amino-7-(1-(difluoromethyl)cyclopropyl)-N-(4-(methoxymethyl)phenyl)-7H-pyrrolo[2,3-d]pyrimidine-5-carboxamide], for which the “Remaining (%)” value turned out to be 65%. `COCc1ccc(NC(=O)c2cn(C3(C)CC3)c3ncnc(N)c23)cc1F` [Example 48, 4-amino-N-(3-fluoro-4-(methoxymethyl)phenyl)-7-(1-methylcyclopropyl)-7H-pyrrolo[2,3-d]pyrimidine-5-carboxamide]: the “Remaining (%)” value was 58%. Turning to `COCc1ccc(NC(=O)c2cn(C3(C4CC4)CC3)c3ncnc(N)c23)cc1` [Example 49, 7-{[1,1-bi(cyclopropane)]-1-yl}-4-amino-N-(4-(methoxymethyl)phenyl)-7H-pyrrolo[2,3-d]pyrimidine-5-carboxamide], the “Remaining (%)” value came to 67%.

`COCc1ccc(NC(=O)c2cn(C(C)(C)C(F)F)c3ncnc(N)c23)cc1` [Example 50, 4-amino-7-(1,1-difluoro-2-methylpropan-2-yl)-N-(4-(methoxymethyl)phenyl)-7H-pyrrolo[2,3-d]pyrimidine-5-carboxamide]: the “Remaining (%)” value came to 53%. For the molecule `COCc1ccc(NC(=O)c2c(Br)n(C3(C)CC3)c3ncnc(N)c23)cc1` [Example 55, 4-amino-6-bromo-N-[4-(methoxymethyl)phenyl]-7-(1-methylcyclopropyl)-7H-pyrrolo[2,3-d]pyrimidine-5-carboxamide], the “Remaining (%)” value was 56%.

As to `COCc1ccc(NC(=O)c2c(Cl)n(C3(C)CC3)c3ncnc(N)c23)cc1` [Example 56, 4-amino-6-chloro-N-[4-(methoxymethyl)phenyl]-7-(1-methylcyclopropyl)-7H-pyrrolo[2,3-d]pyrimidine-5-carboxamide], the “Remaining (%)” value is 62%.

As for `COCc1ccc(NC(=O)c2c(OC)n(C3(C)CC3)c3ncnc(N)c23)cc1` [Example 57, 4-amino-6-methoxy-N-[4-(methoxymethyl)phenyl]-7-(1-methylcyclopropyl)-7H-pyrrolo[2,3-d]pyrimidine-5-carboxamide], the “Remaining (%)” value came out at 86%.

Consider `COCc1ccc(NC(=O)c2c(C)n(C(C)(C)C)c3ncnc(N)c23)cc1` [Example 60, 4-amino-7-(tert-butyl)-N-(4-(methoxymethyl)phenyl)-6-methyl-7H-pyrrolo[2,3-d]pyrimidine-5-carboxamide], for which the “Remaining (%)” value was 81%. As to `COCc1ccc(NC(=O)c2c(-c3cccnc3)n(C3(C)CC3)c3ncnc(N)c23)cc1` [Example 61, 4-amino-N-(4-(methoxymethyl)phenyl)-7-(1-methylcyclopropyl)-6-(pyridin-3-yl)-7H-pyrrolo[2,3-d]pyrimidine-5-carboxamide], the “Remaining (%)” value is 81%. For the molecule `COCc1ccc(NC(=O)c2c(C(C)=O)n(C3(C)CC3)c3ncnc(N)c23)cc1` [Example 64, 6-acetyl-4-amino-N-(4-(methoxymethyl)phenyl)-7-(1-methylcyclopropyl)-7H-pyrrolo[2,3-d]pyrimidine-5-carboxamide], the “Remaining (%)” value worked out at 89%.

For the molecule `C=Cc1c(C(=O)Nc2ccc(COC)cc2)c2c(N)ncnc2n1C1(C)CC1` [Example 65, 4-amino-N-(4-(methoxymethyl)phenyl)-7-(1-methylcyclopropyl)-6-vinyl-7H-pyrrolo[2,3-d]pyrimidine-5-carboxamide], the “Remaining (%)” value is 79%. With `COCc1ccc(NC(=O)c2c(F)n(C3(C)CC3)c3ncnc(N)c23)cc1` [Example 69, 4-amino-6-fluoro-N-(4-(methoxymethyl)phenyl)-7-(1-methylcyclopropyl)-7H-pyrrolo[2,3-d]pyrimidine-5-carboxamide], the “Remaining (%)” value worked out at 69%. For the molecule `CC(C)(C)n1cc(C(=O)Nc2ccc(-c3cc[nH]n3)cc2)c2c(N)ncnc21` [Example 80, N-(4-(1H-pyrazol-3-yl)phenyl)-4-amino-7-(tert-butyl)-7H-pyrrolo[2,3-d]pyrimidine-5-carboxamide], the “Remaining (%)” value worked out at 50%.

Take `COCc1ccc(NC(=O)c2c(C#CCC(C)(C)O)n(C3(C)CC3)c3ncnc(N)c23)cc1` [Example 86, 4-amino-6-(4-hydroxy-4-methylpent-1-yn-1-yl)-N-[4-(methoxymethyl)phenyl]-7-(1-methylcyclopropyl)-7H-pyrrolo[2,3-d]pyrimidine-5-carboxamide]: the “Remaining (%)” value is recorded as 66%.

For the molecule `COCc1ccc(NC(=O)c2c(C#CC3CCOCC3)n(C3(C)CC3)c3ncnc(N)c23)cc1` [Example 87, 4-amino-N-[4-(methoxymethyl)phenyl]-7-(1-methylcyclopropyl)-6-((tetrahydro-2H-pyran-4-yl)ethynyl)-7H-pyrrolo[2,3-d]pyrimidine-5-carboxamide], the “Remaining (%)” value worked out at 63%. `COCc1ccc(NC(=O)c2c(C#CCN3CCCC3)n(C3(C)CC3)c3ncnc(N)c23)cc1` [Example 88, 4-amino-N-[4-(methoxymethyl)phenyl]-7-(1-methylcyclopropyl)-6-(3-(pyrrolidin-1-yl)prop-1-yn-1-yl)-7H-pyrrolo[2,3-d]pyrimidine-5-carboxamide]: the “Remaining (%)” value amounted to 59%. `COCc1ccc(NC(=O)c2c(OC[C@H]3CCCO3)n(C3(C)CC3)c3ncnc(N)c23)cc1` [Example 89, (R)-4-amino-N-[4-(methoxymethyl)phenyl]-7-(1-methylcyclopropyl)-6-((tetrahydrofuran-2-yl)methoxy)-7H-pyrrolo[2,3-d]pyrimidine-5-carboxamide]: the “Remaining (%)” value is recorded as 69%. For the molecule `COCc1ccc(NC(=O)c2c(C#Cc3cnn(C)c3)n(C3(C)CC3)c3ncnc(N)c23)cc1` [Example 90, 4-amino-N-[4-(methoxymethyl)phenyl]-6-((1-methyl-1H-pyrazol-4-yl)ethynyl)-7-(1-methylcyclopropyl)-7H-pyrrolo[2,3-d]pyrimidine-5-carboxamide], the “Remaining (%)” value was found to be 67%. As to `COCc1ccc(NC(=O)c2c(C#Cc3cnc4cccnn34)n(C3(C)CC3)c3ncnc(N)c23)cc1` [Example 91, 4-amino-6-(imidazo[1,2-b]pyridazin-3-ylethynyl)-N-[4-(methoxymethyl)phenyl]-7-(1-methylcyclopropyl)-7H-pyrrolo[2,3-d]pyrimidine-5-carboxamide], the “Remaining (%)” value came to 65%. As for `COCc1ccc(NC(=O)c2c(C#Cc3ccn(C)n3)n(C3(C)CC3)c3ncnc(N)c23)cc1` [Example 92, 4-amino-N-(4-(methoxymethyl)phenyl)-6-((1-methyl-1H-pyrazol-3-yl)ethynyl)-7-(1-methylcyclopropyl)-7H-pyrrolo[2,3-d]pyrimidine-5-carboxamide], the “Remaining (%)” value is 67%. Consider `COCc1ccc(NC(=O)c2c(C#Cc3cncn3C)n(C3(C)CC3)c3ncnc(N)c23)cc1` [Example 93, 4-amino-N-(4-(methoxymethyl)phenyl)-6-((1-methyl-1H-imidazol-5-yl)ethynyl)-7-(1-methylcyclopropyl)-7H-pyrrolo[2,3-d]pyrimidine-5-carboxamide], for which the “Remaining (%)” value is 53%. Consider `COCc1ccc(NC(=O)c2c(C#Cc3cccnc3)n(C3(C)CC3)c3ncnc(N)c23)cc1` [Example 94, 4-amino-N-[4-(methoxymethyl)phenyl]-7-(1-methylcyclopropyl)-6-(pyridin-3-ylethynyl)-7H-pyrrolo[2,3-d]pyrimidine-5-carboxamide], for which the “Remaining (%)” value is on record as 60%.

Regarding `COCc1ccc(NC(=O)c2c(OC[C@@H](C)OC)n(C3(C)CC3)c3ncnc(N)c23)cc1` [Example 96, (R)-4-amino-N-(4-(methoxymethyl)phenyl)-6-(2-methoxypropoxy)-7-(1-methylcyclopropyl)-7H-pyrrolo[2,3-d]pyrimidine-5-carboxamide], the “Remaining (%)” value worked out at 71%.
